What was measured:
TRPMLs = conditions: cited from earlier work
TRPML2 = target: T1, TRPML2 (Homo sapiens, UniProt Q8IZK6); conditions: cited from earlier work
T1 sequence (Q8IZK6 1-566): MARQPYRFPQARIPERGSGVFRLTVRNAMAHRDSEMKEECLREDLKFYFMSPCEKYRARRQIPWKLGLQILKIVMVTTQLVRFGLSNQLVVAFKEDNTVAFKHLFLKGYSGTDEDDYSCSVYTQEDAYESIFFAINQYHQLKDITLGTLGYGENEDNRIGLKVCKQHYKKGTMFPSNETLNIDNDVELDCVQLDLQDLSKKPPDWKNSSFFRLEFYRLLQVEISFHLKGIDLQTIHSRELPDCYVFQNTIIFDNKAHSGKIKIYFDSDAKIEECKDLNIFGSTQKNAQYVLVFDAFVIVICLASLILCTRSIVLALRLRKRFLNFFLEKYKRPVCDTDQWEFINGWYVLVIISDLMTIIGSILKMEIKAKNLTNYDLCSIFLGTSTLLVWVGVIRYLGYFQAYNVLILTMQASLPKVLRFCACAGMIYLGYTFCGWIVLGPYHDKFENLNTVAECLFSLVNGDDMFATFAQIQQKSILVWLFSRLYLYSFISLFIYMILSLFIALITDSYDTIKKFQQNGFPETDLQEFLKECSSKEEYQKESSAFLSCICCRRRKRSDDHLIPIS

TRPML1 = conditions: cited from earlier work
ML1-4A = target: T2, ML1-4A (Homo sapiens, UniProt Q9GZU1, L15A/L16A); conditions: HEK293 cells stably or transiently expressing ML1-4A; cited from earlier work
T2 construct: host or cells: HEK293 (stably or transiently transfected)

TRPML3 = target: T3, TRPML3 (Homo sapiens, UniProt Q8TDD5); conditions: cited from earlier work
T3 sequence (Q8TDD5 1-553): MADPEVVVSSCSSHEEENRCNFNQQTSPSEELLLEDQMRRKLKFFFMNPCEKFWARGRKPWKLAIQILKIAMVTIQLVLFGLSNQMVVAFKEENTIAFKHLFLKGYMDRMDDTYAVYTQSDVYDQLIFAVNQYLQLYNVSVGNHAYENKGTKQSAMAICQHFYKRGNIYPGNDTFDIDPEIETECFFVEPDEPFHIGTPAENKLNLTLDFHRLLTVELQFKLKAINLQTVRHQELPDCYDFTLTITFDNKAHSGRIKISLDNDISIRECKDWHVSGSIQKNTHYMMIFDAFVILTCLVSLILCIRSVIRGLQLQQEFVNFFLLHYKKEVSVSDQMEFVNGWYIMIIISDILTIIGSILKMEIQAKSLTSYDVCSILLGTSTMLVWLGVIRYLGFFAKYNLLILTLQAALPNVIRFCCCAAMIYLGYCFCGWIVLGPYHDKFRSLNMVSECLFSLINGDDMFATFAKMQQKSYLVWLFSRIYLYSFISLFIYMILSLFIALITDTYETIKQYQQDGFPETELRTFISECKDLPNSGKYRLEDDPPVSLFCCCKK

[1] = test system: TRPML-like current (IML-L); conditions: ML4 (ML1−/−) human fibroblasts; cited from earlier work
[2] = target: T4, TRPML-like current (IML-L) (Homo sapiens, UniProt Q9GZU1); conditions: wild-type (WT; ML1+/+) human fibroblasts; cited from earlier work
T4 construct: endogenous in cells; host or cells: human fibroblasts (WT ML1+/+; ML4 ML1-/- as negative control)

TFEB = TFEB Nuclear Translocation Assay; format: cell-based; conditions: read-out: EC50 of TFEB activation

T4 sequence (Q9GZU1 whole entry): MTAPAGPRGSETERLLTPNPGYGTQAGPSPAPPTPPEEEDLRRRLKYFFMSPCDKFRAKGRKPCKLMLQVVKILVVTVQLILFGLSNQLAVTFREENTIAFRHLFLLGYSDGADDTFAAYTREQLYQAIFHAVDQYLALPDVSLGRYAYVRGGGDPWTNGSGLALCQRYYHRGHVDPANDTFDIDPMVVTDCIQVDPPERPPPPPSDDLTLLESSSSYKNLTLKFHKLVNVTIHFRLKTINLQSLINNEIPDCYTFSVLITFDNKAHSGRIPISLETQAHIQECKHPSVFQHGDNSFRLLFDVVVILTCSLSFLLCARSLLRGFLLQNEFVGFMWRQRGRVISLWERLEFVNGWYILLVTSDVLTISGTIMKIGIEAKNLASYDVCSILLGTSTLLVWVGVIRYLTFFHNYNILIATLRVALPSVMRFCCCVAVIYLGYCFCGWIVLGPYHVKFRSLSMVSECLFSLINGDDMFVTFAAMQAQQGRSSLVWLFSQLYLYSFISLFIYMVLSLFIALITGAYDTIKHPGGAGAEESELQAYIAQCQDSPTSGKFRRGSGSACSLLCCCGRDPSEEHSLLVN
T2 sequence (Q9GZU1 with tags, fused parts or gaps L15A/L16A limits assumed): as the sequence (Q9GZU1 whole entry) above, with L15A, L16A, L577A, L578A counted along it

Compound	EC50 (TFEB) [nM]	further results
CC1CC(C)(C)N(C(=O)CN2C(=O)c3ccccc3C2=O)c2ccccc21 (stereo not shown) [ML-SA1]	–	concentration needed to effectively activate TRPMLs (TRPMLs): ~10 µM; activation of whole-cell ITRPML2 (TRPML2): activated; activation of whole-endolysosome IML1 compared with PI(3,5)P2 (TRPML1; ML-SA1 10 μM, PI(3,5)P2 1 μM): comparable to the effect of the endogenous TRPML agonist PI(3,5)P2 (1 μM); activation of whole-cell IML1-4A and whole-endolysosome IML1 (TRPML1): robustly activated; [Ca2+]cyt increases (ML1-4A): significant [Ca2+]cyt increases; activation of whole-cell ITRPML3 (TRPML3): activated; activation of whole-endolysosome IML-L [1]: not; activation of whole-endolysosome IML-L [2]: activated
O=S(=O)(c1ccn(S(=O)(=O)C2CC2)c1)n1nc(N2CCN(c3ncc(F)cn3)CC23CC3)c2c(Cl)cc(F)cc21 [Compound 173, 4-chloro-1-((1-(cyclopropylsulfonyl)-1H-pyrrol-3-yl)sulfonyl)-6-fluoro-3-(7-(5-fluoropyrimidin-2-yl)-4,7-diazaspiro [2.5]octan-4-yl)-1H-indazole]	≤ 1000	–
CC(C)S(=O)(=O)n1ccc(S(=O)(=O)n2nc(N3CCN(c4ncc(Cl)cc4F)CC34CC4)c3c(Cl)cccc32)c1 [Compound 140, 4-chloro-3-[7-(5-chloro-3-fluoro-2-pyridyl)-4,7-diazaspiro [2.5]octan-4-yl]-1-(1-isopropylsulfonylpyrrol-3-yl) sulfonyl-indazole]	≤ 1000	–
CC(C)S(=O)(=O)c1ccc(S(=O)(=O)n2nc(N3CCC(F)(F)CC34CC4)c3c(Cl)cccc32)cc1 [Compound 53, 4-chloro-3-(7,7-difluoro-4-azaspiro [2.5]octan-4-yl)-1-(4-isopropylsulfonylphenyl) sulfonyl-indazole]	≤ 1000	–
O=S(=O)(c1ccc(C(F)(F)C(F)F)cc1)n1nc(N2CCN(c3ncc(F)cn3)CC23CC3)c2c(Cl)cccc21 [Compound 95, 4-chloro-3-(7-(5-fluoropyrimidin-2-yl)-4,7-diazaspiro [2.5]octan-4-yl)-1-((4-(1,1,2,2-tetrafluoroethyl)phenyl)sulfonyl)-1H-indazole]	≤ 1000	–
O=S(=O)(c1ccc(OC(F)(F)F)cc1)n1nc(N2CCN(c3ncc(F)cn3)CC23CC3)c2c(Cl)cccc21 [Compound 117, 4-chloro-3-[7-(5-fluoropyrimidin-2-yl)-4,7-diazaspiro [2.5]octan-4-yl]-1-[4-(trifluoromethoxy)phenyl]sulfonyl-indazole]	≤ 1000	–
O=S(=O)(c1ccc(C(F)F)cc1)n1nc(N2CCN(c3ncc(F)cn3)CC23CC3)c2c(Cl)cccc21 [Compound 78, 4-chloro-1-[4-(difluoromethyl)phenyl]sulfonyl-3-[7-(5-fluoropyrimidin-2-yl)-4,7-diazaspiro [2.5]octan-4-yl]indazole]	≤ 1000	–
[2H]c1c(S(=O)(=O)n2nc(N3CCN(c4ncc(F)cn4)CC34CC4)c3c(Cl)cc(F)cc32)c([2H])n(S(=O)(=O)C(C)C)c1[2H] [Compound 180, 4-chloro-6-fluoro-3-[7-(5-fluoropyrimidin-2-yl)-4,7-diazaspiro [2.5]octan-4-yl]-1-(2,4,5-trideuterio-1-isopropylsulfonyl-pyrrol-3-yl) sulfonyl-indazole]	≤ 1000	–
CC(C)S(=O)(=O)n1ccc(S(=O)(=O)n2nc(N3CCN(c4ncc(F)cc4F)CC34CC4)c3c(Cl)cc(F)cc32)c1 [Compound 158, 4-chloro-3-[7-(3,5-difluoro-2-pyridyl)-4,7-diazaspiro [2.5]octan-4-yl]-6-fluoro-1-(1-isopropylsulfonylpyrrol-3-yl) sulfonyl-indazole]	≤ 1000	–

Reference: patent publication US20250333406A1, “SULFONYL CYCLIC DERIVATIVES, AND COMPOSITIONS AND METHODS THEREOF” (Lysoway Therapeutics, Inc., priority 2023, published 2025)
